{"source": "patent US20250312416A1", "about": "“METHOD AND PHARMACEUTICAL COMPOSITION FOR CARTILAGE REGENERATION” (FAR EASTERN MEMORIAL HOSPITAL, priority 2024, published 2025)", "key": {"[1]": {"test_system": "ADSC spheroids", "assay": "Immunofluorescence / confocal microscopy of chondrogenic proteins in ADSC spheroids", "format": "cell-based, human", "details": "3D ADSC spheroids, by day 7", "protocol": "Both side views (observed in the x and z plane) and bottom views (observed in the […]) of the images are provided. The scale bar is set at 500 μm.\nADSCs were treated with CXCL14-P, CXCL14-P1, or CXCL14-P2, respectively, at a concentration of 10 ng for 24 hours, after which the medium was replaced with fresh peptide-free medium. On day 7, total RNA was extracted, and real-time PCR analysis was performed to assess the expression levels of key chondrogenic markers, including ACAN, COL2A1, SOX9, and COMP. Gene expression levels were quantified using a LightCycler system (Roche Applied Science), with fold changes calculated relative to untreated control ADSCs. […] Immunofluorescence staining was performed to detect Collagen Type II, SOX9, COMP, and nuclei (Hoechst 33342) in 3D ADSC spheroids (middle panel).\n(FIG. 3). […] Moreover, fluorescence confocal microscopy was employed to detect protein patterns and confirm the levels of SOX9, type II collagen, and aggrecan proteins in ADSC spheroids. […] Finally, to investigate whether the CXCR4 receptor of CXCL12/CXCL14 confers chondrogenic signaling during chondrogenesis, we treated ADSCs with a CXCR4 agonist for 7 days.\nExtracellular vesicles (EVs) derived from MSCs hold significant potential for repairing damaged tissues. In this study, we explored whether EVs from ADSCs could effectively enhance chondrogenesis and promote cartilage repair. Immunofluorescence staining was used to assess protein levels of Collagen Type II (green), SOX9 (red), COMP (indigo), and Hoechst 33342 (gray) in 3D ADSC spheroids treated with MSC-EVs derived from CXCL14 peptide-primed ADSCs (CXCL14-P-MSC-EVs) at various time points. […] To further explore the cartilage repair functions of EVs from CXCL14-P-treated ADSCs and the encapsulation of the transcription factor SOX9 within MSCs and purified EVs, we performed in vivo studies."}, "[2]": {"test_system": "UC-MSCs", "assay": "Alcian blue staining of chondrogenic pellets (GAG), UC-MSCs", "format": "cell-based", "details": "in the presence of TGF-beta", "text": "FIG. 13A provides flowchart illustrating the protocol for peptide treatment and sample collection. […] TGF-beta influenced the expression of chondrogenic genes, including ITGB1 and COMP. […] Treatment with CXCL14/CXCL12 peptides increased GAG content during chondrogenesis in the presence of TGF-beta.\nTo further validate the role of CXCL14-P and CXCL12-P in regulating chondrogenesis, we compared their effects on another MSC source, umbilical cord-derived mesenchymal stem cells (UC-MSCs). It is important to note that the chondrogenic induction medium contained TGF-β. During chondrogenesis, we observed that the chondrogenic patterns in UC-MSCs were lower than those in ADSCs (FIG. 12). Subsequently, we assessed the chondrogenic potential of UC-MSCs following stimulation with CXCL14-P and CXCL12-P (FIG. 13A). […] Although the expression of chondrogenic genes (FIG. 13B) and GAG content (FIG. 13C) in UC-MSCs was not as pronounced as in ADSCs, the findings confirm that CXCL14-P and CXCL12-P can robustly stimulate chondrogenesis across different MSC sources."}}, "data": [{"sequence": "ITTKSVSRYRGQEH [CXCL14-P]", "values": [{"measurement": "Collagen Type II, SOX9, and COMP expression", "setting": "[1]", "result": "increase"}, {"measurement": "GAG content (Alcian blue)", "setting": "[2]", "result": "increased"}]}]}
